Reference: paper PMC7490547 (Frontiers in Pharmacology, 2020)
Read-outs that look alike come from different tables or passages of the source. Each block holds one molecule with its values, some of them ahead of it.

Key:
[1] = parameters: method as in Rollyson et al., 2014; Swain and Kumar Mishra, 2015; conditions: ref Rollyson et al., 2014; Swain and Kumar Mishra, 2015; cited from earlier work
[2] = parameters: method as in Lee et al., 1997; Wohlrab et al., 2015; conditions: assumed value; ref Lee et al., 1997; Wohlrab et al., 2015; cited from earlier work
K+ channels = conditions: cited from earlier work
Ca2+ channels = conditions: cited from earlier work
[3] = system: voltage-gated Na+ channels; conditions: cited from earlier work
human 5-HT3AB receptors = molecular target: T1, human 5-HT3AB receptors (Homo sapiens, UniProt O95264+P46098); assay: Two-electrode voltage clamp in Xenopus oocytes co-expressing 5-HT3A and 5-HT3B subunits; format: cell-based; conditions: 100 µM; 3 µM 5-HT for 5-HT3A and 30 µM 5-HT for 5-HT3AB; n = 5–7, P>0.05
T1 construct: host or cells: Xenopus laevis oocytes, subunits injected at ratios 1:1 or 1:2
T1 sequence (P46098 24-478): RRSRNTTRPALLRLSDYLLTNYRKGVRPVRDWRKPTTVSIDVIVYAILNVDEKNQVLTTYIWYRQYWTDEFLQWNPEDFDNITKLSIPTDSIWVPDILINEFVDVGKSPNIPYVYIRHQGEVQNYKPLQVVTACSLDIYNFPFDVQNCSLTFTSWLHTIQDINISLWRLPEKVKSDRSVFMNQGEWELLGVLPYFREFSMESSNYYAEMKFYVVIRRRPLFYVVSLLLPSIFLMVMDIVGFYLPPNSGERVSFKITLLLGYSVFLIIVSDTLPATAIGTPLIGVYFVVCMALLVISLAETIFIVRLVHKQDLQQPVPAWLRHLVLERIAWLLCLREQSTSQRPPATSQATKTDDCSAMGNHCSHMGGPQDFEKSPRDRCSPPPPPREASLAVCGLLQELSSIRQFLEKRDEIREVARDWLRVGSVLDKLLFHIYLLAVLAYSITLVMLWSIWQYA
T1 sequence (O95264 22-441): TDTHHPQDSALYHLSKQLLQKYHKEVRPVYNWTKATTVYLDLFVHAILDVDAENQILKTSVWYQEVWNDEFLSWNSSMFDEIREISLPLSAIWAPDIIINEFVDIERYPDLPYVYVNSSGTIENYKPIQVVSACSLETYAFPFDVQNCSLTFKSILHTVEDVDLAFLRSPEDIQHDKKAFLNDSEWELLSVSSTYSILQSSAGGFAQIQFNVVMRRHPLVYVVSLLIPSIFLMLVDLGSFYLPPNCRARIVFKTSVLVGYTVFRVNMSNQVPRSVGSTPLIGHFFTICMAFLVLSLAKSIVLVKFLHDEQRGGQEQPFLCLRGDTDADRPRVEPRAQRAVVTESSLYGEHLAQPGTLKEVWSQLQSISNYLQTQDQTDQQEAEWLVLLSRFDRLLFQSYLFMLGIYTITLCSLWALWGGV
From the text: Mature female Xenopus laevis frogs were obtained from Xenopus leavis I, Ann Arbor, MI, USA. Experiments and methods used in this study were in accordance with the Guide for the Care and Use of Laboratory Animals of the National Institutes of Health (Bethesda, MD, USA) and our protocol (A9/08) was approved by the Institutional Animal Care and Use Committee at the College of Medicine and Health Sciences, United Arab Emirates University. Clusters of oocytes were removed surgically under benzocaine (0.03% w/v; Sigma, St.Louis, MO) anesthesia. Individually dissected oocytes were stored for 2 to 8 days in modified Barth’s solution (MBS) containing (in mM): NaCl 88; KCl 1; NaHCO3 2.4; CaCl2; 2; MgSO4 0.8; HEPES 10 (pH 7.5), supplemented with sodium pyruvate 2 mM, penicillin 10,000 IU/L, streptomycin 10 mg/L, gentamicin 50 mg/L, and theophylline 0.5 mM. Human 5-HT3A receptor cRNA (3 ng in 50 nl) was injected into each oocyte as described before ([Ashoor et al., 2013]). In co-expression of subunit combinations, cDNAs for 5-HT3A and 5-HT3B subunits, were mixed in ratios of 1:1 (or 1:2), respectively. […] Current responses were digitized by A/D converter and analyzed using pClamp 10.4 (Molecular Devices-Axon Instruments, San Jose, CA USA) or Origin™ (Originlab Corp. Northampton, MA, USA), run on an IBM/PC. […]

human 5-HT3 receptor = molecular target: T2, human 5-HT3 receptor (Homo sapiens, UniProt P46098); assay: Two-electrode voltage clamp of 5-HT-induced currents in Xenopus oocytes expressing human 5-HT3A receptor; format: cell-based; parameters: host or cells: Xenopus laevis oocytes injected with cRNA
T2 sequence (P46098 24-478): T1 sequence (P46098 24-478)
From the text: Mature female Xenopus laevis frogs were obtained from Xenopus leavis I, Ann Arbor, MI, USA. Experiments and methods used in this study were in accordance with the Guide for the Care and Use of Laboratory Animals of the National Institutes of Health (Bethesda, MD, USA) and our protocol (A9/08) was approved by the Institutional Animal Care and Use Committee at the College of Medicine and Health Sciences, United Arab Emirates University. Clusters of oocytes were removed surgically under benzocaine (0.03% w/v; Sigma, St.Louis, MO) anesthesia. Individually dissected oocytes were stored for 2 to 8 days in modified Barth’s solution (MBS) containing (in mM): NaCl 88; KCl 1; NaHCO3 2.4; CaCl2; 2; MgSO4 0.8; HEPES 10 (pH 7.5), supplemented with sodium pyruvate 2 mM, penicillin 10,000 IU/L, streptomycin 10 mg/L, gentamicin 50 mg/L, and theophylline 0.5 mM. […] In co-expression of subunit combinations, cDNAs for 5-HT3A and 5-HT3B subunits, were mixed in ratios of 1:1 (or 1:2), respectively. Following day, oocytes were placed in a 0.2 ml recording chamber and superfused at a constant rate of 3 to 5 ml/min. […] The oocytes were impaled with two standard glass microelectrodes filled with a 3 M KCl (1–3 MΩ) and voltage clamped at a holding potential of −70 mV using GeneClamp-500B amplifier (Axon Instruments Inc., Burlingame, CA). […] Compounds were applied by addition to the superfusate. […] Injections were performed 10 min prior to recordings using oil-driven ultra microsyringe pumps (Micro4; WPI, Inc. Sarasota, FL, USA).
The cDNA clones of the human 5-HT3A and 5-HT3B subunits were provided by OriGen Inc. (Rockville, MD). Complementary RNAs (cRNAs) were synthesized in vitro using a mMessage mMachine RNA transcription kit (Ambion Inc., Austin, TX). The quality and size of synthesized cRNAs were confirmed by denatured RNA agarose gels.
For the nonlinear curve fitting and regression fits of the dose-response curves and radio-ligand binding data, the computer software Origin™ 8.5 (Originlab Corp. Northampton, MA, USA) was used. In functional assays, average values were calculated as mean ± standard error means (S.E.M.). Statistical significance was analyzed using ANOVA or Student’s t test and post hoc Bonferroni test was used following ANOVA. Concentration-response curves were obtained by fitting the data to the logistic equation, […]

human 5-HT3A receptor = molecular target: T3, human 5-HT3A receptor (Homo sapiens, UniProt P46098); format: cell-based
T3 construct: expressed in transfected cells; host or cells: HEK293-AEQ17 cells (HEK 293 stably expressing apoaequorin), transient transfection
T3 sequence (P46098 24-478): T1 sequence (P46098 24-478)
Experimental: Cells were seeded in 25-cm^2 cell culture flasks in Dulbecco’s modified Eagle’s medium (DMEM)/Ham’s F12 (1:1) + 10% fetal bovine serum to obtain a cell density of 50% to 70%, and the following day, transiently transfected with cDNA encoding human 5-HT3A receptor (3 µg) using Lipofectamine 2000 reagent (Thermo Fisher Scientific-Invitrogen, Waltham, MA) according to the manufacturer’s instructions. Two days after transfection, cells were harvested by centrifugation and resuspended in 0.5 ml (25-cm^2 flask) DMEM/Ham’s F12 (1:1) + 0.1% bovine serum albumin. The cell suspension was incubated with 10 μM Coelenterazine h (Thermo Fisher Scientific-Invitrogen, Waltham, MA, USA) for three hours at room temperature in the dark. […] Luminescence was measured using a Luminoskan (Thermo Fisher Scientific, Waltham, MA, USA) equipped with an injector and recorded at a sampling rate of 2 Hz for up to 60 s. At the end of the experiments, cells were lysed with Triton X-100 0.1% (v/v) and CaCl2 50 mM, and aequorin luminescence was recorded to obtain the maximum Ca^2+ response. […] Data were exported to software Origin™ 8.5 (Originlab Corp. Northampton, MA, USA).

Structure (SMILES): COc1cc(CNC(=O)CCCC/C=C/C(C)C)ccc1O [capsaicin, (E)-N-[(4-Hydroxy-3-methoxyphenyl)methyl]-8-methyl-6-nonenamide]
LogP (octanol–water partition coefficient) [1]: 3.8 | fraction of topically applied capsaicin absorbed into the skin [2]: 2% | IC50 (K+ channels; ref Aréchiga-Figueroa et al., 2017): 10 µM | IC50 (K+ channels; ref Grissmer et al., 1994): 158 µM | IC50 (K+ channels; ref Kuenzi and Dale, 1996): 21 µM | IC50 (K+ channels; ref Wu et al., 2011): 103 µM | IC50 (Ca2+ channels; ref Castillo et al., 2007): 38 µM | IC50 (Ca2+ channels; ref Kuenzi and Dale, 1996): 44 µM | IC50 ([3]; ref Bielefeldt, 2000): 40 µM | IC50 ([3]; ref Duan et al., 2007): 39 µM | IC50 ([3]; ref Tomohiro et al., 2013): 100 µM | IC50 ([3]; ref Wang et al., 2007): 76 µM | extent of inhibition among 5-HT3A, 5-HT3AB (1:1) and 5-HT3AB (1:2) receptors (human 5-HT3AB receptors): not statistically different

Structure (SMILES): COc1cc(C=O)ccc1O [vanillin]
effect on 5-HT3 receptor currents (human 5-HT3 receptor; 100 µM for 15 min, n = 8, P>0.05): did not affect

luminescence activation in cells not transfected with 5-HT3 (human 5-HT3A receptor; 30 μM, coelenterazine h-loaded HEK-293-AEQ17 cells, n = 4): did not cause luminescence activation | slope of the aequorin concentration-response curve (human 5-HT3A receptor; HEK-293-AEQ17 cells transfected with human 5-HT3 receptor): 2.7
Structure (SMILES): NCCc1c[nH]c2ccc(O)cc12 [5-HT, 5-hydroxytryptamine]

Structure (SMILES): CN1[C@@H]2CC[C@H]1C[C@@H](OC(=O)c1cc(Cl)cc(Cl)c1)C2 [MDL72222, Tropanyl 3,5-dichlorobenzoate]
inhibition of fast inward currents activated by 5-HT (1 μM) or 2-methyl-5-HT (10 μM) (human 5-HT3 receptor; 0.5 µM, n = 7): completely inhibited

Structure (SMILES): COc1cc(CNC(=O)CCCCCCC(C)C)ccc1O [dihydrocapsaicin, Dihydrocapsaicin]
inhibition at 100 µM (human 5-HT3 receptor; read-out: 5-HT3 receptors inhibited to (% )): 62%

change in amplitudes of 5-HT3 receptor-mediated currents, compound alone (human 5-HT3 receptor; 10 µM, 5-HT 1 µM, n = 4): did not cause any significant change
Structure (SMILES): Oc1cc2c(cc1O)CN(C(=S)NCCc1ccc(Cl)cc1)CCC2 [capsazepine]
